Laboratory results taken from the Kinase Knowledgebase extract (Sharma et al. 2016).

Assays:
EGFR (human) [1] = molecular target: EGFR (human) (UniProt P00533); conditions: a431
EGFR (human) [2] = molecular target: EGFR (human) (UniProt P00533); conditions: a431; remark: listed apart in the source
EGFR (human) [3] = molecular target: EGFR (human) (UniProt P00533); conditions: A431
EGFR (human) [4] = molecular target: EGFR (human) (UniProt P00533); conditions: a431; remark: listed apart in the source

EGFR (human), sequence (P00533 whole entry, looked up): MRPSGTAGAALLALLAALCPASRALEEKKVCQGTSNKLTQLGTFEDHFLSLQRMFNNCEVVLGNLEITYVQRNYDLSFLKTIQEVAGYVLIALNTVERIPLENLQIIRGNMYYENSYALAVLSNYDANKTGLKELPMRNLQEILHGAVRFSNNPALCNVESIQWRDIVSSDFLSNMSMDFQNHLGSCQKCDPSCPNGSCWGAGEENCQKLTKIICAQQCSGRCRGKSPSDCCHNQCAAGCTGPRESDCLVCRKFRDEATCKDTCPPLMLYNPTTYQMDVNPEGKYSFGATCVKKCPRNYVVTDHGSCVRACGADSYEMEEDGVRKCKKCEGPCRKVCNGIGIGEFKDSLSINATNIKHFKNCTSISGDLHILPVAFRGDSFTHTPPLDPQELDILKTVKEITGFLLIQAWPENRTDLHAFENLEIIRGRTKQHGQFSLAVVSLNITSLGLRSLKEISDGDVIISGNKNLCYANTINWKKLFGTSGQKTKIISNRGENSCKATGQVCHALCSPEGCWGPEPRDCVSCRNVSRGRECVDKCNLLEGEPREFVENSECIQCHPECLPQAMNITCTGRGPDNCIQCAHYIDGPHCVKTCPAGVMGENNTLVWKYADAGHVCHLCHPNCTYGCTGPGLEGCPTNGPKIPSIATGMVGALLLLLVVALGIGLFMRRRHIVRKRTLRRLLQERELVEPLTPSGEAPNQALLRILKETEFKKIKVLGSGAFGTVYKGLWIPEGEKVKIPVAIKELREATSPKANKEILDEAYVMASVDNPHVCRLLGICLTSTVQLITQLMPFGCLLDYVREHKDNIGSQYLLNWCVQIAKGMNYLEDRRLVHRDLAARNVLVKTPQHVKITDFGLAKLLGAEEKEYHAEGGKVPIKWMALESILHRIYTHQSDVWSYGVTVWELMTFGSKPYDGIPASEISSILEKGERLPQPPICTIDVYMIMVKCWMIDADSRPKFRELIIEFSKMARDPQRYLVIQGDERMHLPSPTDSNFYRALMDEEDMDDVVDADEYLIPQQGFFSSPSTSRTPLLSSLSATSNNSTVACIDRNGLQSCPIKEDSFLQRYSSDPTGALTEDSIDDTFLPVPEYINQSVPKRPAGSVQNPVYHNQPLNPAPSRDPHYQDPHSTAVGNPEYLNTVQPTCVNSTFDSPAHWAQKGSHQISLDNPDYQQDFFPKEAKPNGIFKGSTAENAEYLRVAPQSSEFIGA

| Compound | IC50 (EGFR (human) [1]) | IC50 (EGFR (human) [2]) | inhibition (EGFR (human) [3]) | IC50 (EGFR (human) [3]) | IC50 (EGFR (human) [4]) | inhibition (EGFR (human) [4]) |
| --- | --- | --- | --- | --- | --- | --- |
| COc1ccc(N2CCN(c3ncnc4cc(OC)c(OC)cc34)CC2)cc1 | > 100 µM | > 100 µM | 0 | – | – | – |
| COc1cc2nc(Nc3cccc(Br)c3)nc(Nc3cccc(Br)c3)c2cc1OC | 25.3 µM | 13.2 µM | 0 | – | – | – |
| COc1cc2ncnc(N3CCN(c4ccccc4OC)CC3)c2cc1OC | 2.1 µM | 1.4 µM | 0 | – | – | – |
| COc1cc2ncnc(N3CCN(c4ccccn4)CC3)c2cc1OC | 67.4 µM | 63.5 µM | 0 | – | – | – |
| COc1cc2ncnc(N3CCN(c4ccccc4C)CC3)c2cc1OC | > 100 µM | > 100 µM | 0 | – | – | – |
| COc1cc2ncnc(N3CCN(c4ccccc4Cl)CC3)c2cc1OC | 14.6 µM | 13.7 µM | 0 | – | – | – |
| COc1cccc(N2CCN(c3ncnc4cc(OC)c(OC)cc34)CC2)c1 | 58.8 µM | 38.7 µM | 0 | – | – | – |
| COc1cc2nc(N3CCOCC3)nc(N3CCOCC3)c2cc1OC | > 100 µM | > 100 µM | 0 | – | – | – |
| COc1cc2ncnc(NCCNc3ccccc3)c2cc1OC | > 100 µM | > 100 µM | – | 31.6 µM | – | – |
| COc1cc2ncnc(N3CCN(c4ccc([N+](=O)[O-])cc4)CC3)c2cc1OC | > 100 µM | 40.8 µM | – | 0.0168 µM | – | – |
| COc1cccc(Nc2ncnc3cc(OC)c(OC)cc23)c1 | 77 µM | 11.7 µM | – | 1.6 µM | 0.706 µM | – |
| COc1cc2ncnc(N3CCN(c4ccccc4)CC3)c2cc1OC | 33.6 µM | 30.8 µM | 0 | – | – | – |
| COc1cc2nc(Nc3cccc(Br)c3)n3nnnc3c2cc1OC | > 100 µM | > 100 µM | 0 | – | – | – |
| COc1cc2ncnc(N3CCN(c4ccccc4F)CC3)c2cc1OC | > 100 µM | > 100 µM | 0 | – | – | – |
| COc1cc2ncnc(N(C)c3cccc(Br)c3)c2cc1OC | – | – | 0 | – | – | 0 |
| COc1cc2ncnc(N3CCN(c4ccc(F)cc4)CC3)c2cc1OC | > 100 µM | > 100 µM | 0 | – | – | – |
| COc1ccc(CCCNc2ncnc3cc(OC)c(OC)cc23)cc1OC | 3 µM | 22.8 µM | 0 | – | – | – |
| COc1ccc(CCCCNc2ncnc3cc(OC)c(OC)cc23)cc1OC | > 100 µM | > 100 µM | 0 | – | – | – |

Next, values leading:

| IC50 (EGFR (human) [1]) | IC50 (EGFR (human) [2]) | inhibition (EGFR (human) [3]) | IC50 (EGFR (human) [3]) | IC50 (EGFR (human) [4]) | inhibition (EGFR (human) [4]) | Compound |
| --- | --- | --- | --- | --- | --- | --- |
| > 100 µM | > 100 µM | 0 | – | – | – | COc1cc2ncnc(N3CCS(=O)(=O)CC3)c2cc1OC |
| 6.6 µM | 6.8 µM | 0 | – | – | – | COc1cc2nc3nccn3c(Nc3cccc(Br)c3)c2cc1OC |
| > 100 µM | > 100 µM | 0 | – | – | – | COc1cc2ncnc(N3CCN(c4cccc(Cl)c4)CC3)c2cc1OC |
| 34.6 µM | 21.8 µM | – | 17.9 µM | – | – | COc1cc2ncnc(N3CCN(Cc4ccccc4)CC3)c2cc1OC |
| > 100 µM | > 100 µM | 0 | – | – | – | COc1cc2ncnc(N3CCNCC3)c2cc1OC |
| > 100 µM | > 100 µM | – | 9.4 µM | – | – | COc1ccc(Nc2ncnc3cc(OC)c(OC)cc23)cc1OC |
| > 100 µM | > 100 µM | 0 | – | – | – | COc1cc2c(Nc3cccc(Br)c3)nc3nnnn3c2cc1OC |
| 3.9 µM | 4.7 µM | 0 | – | – | – | COc1cc2ncnc(N3CCN(c4cccc(C(F)(F)F)c4)CC3)c2cc1OC |
| 85 µM | 24.7 µM | – | 0.0047 µM | – | – | COc1cc2ncnc(N3CCN(c4ccc(Cl)cc4)CC3)c2cc1OC |
| > 100 µM | 4.4 µM | – | 0.0437 µM | 0.563 µM | – | COc1cc2ncnc(Nc3ccccc3[N+](=O)[O-])c2cc1OC |
| > 100 µM | > 100 µM | 0 | – | – | – | COc1cc2ncnc(N3CCOCC3)c2cc1OC |
| 30 µM | 26.5 µM | 0 | – | – | – | COc1ccc(CCNc2ncnc3cc(OC)c(OC)cc23)cc1OC |
| > 100 µM | > 100 µM | 0 | – | – | – | COc1cc2ncnc(N3CCSCC3)c2cc1OC |
| 30 µM | 27.1 µM | – | 31.6 µM | – | – | COc1ccc(CNc2ncnc3cc(OC)c(OC)cc23)cc1OC |
